In US10828317B2, “Method of treating bacterial infections” (priority 2016, dated 2020):

Key:
P. aeruginosa EN004 = assay: MIC, WT (EN004 = EN0004); assay type: cell-based, Pseudomonas aeruginosa; conditions: combination FdUrd+trimethoprim+uridine
S. epidermidis EN0456 = assay: MIC; assay type: cell-based, Staphylococcus epidermidis; conditions: combination FdUrd+trimethoprim+uridine, Table 8
E. coli EN001 = assay: MIC, WT (EN001 = EN0001, ATCC 25922); assay type: cell-based, Escherichia coli; conditions: combination FdUrd+trimethoprim+uridine, Table 19
K. pneumoniae EN0145 = assay: MIC, KPC-2; assay type: cell-based; conditions: combination FdUrd+trimethoprim+uridine, Table 19
K. pneumoniae EN0244 = assay: MIC, colistinR; assay type: cell-based; conditions: combination FdUrd+trimethoprim+uridine, Table 19
E. coli EN0137 = assay: MIC, ESBL (CTX-M-15); assay type: cell-based; conditions: combination FdUrd+trimethoprim+uridine, Table 19
S. marescens EN0454 = assay: MIC; assay type: cell-based, Serratia marescens; conditions: combination FdUrd+trimethoprim+uridine, Table 8
E. coli EN0134 = assay: MIC, AmpC (CMY-4); assay type: cell-based; conditions: combination FdUrd+trimethoprim+uridine, Table 19
K. pneumoniae EN006 = assay: MIC, WT (EN006 = EN0006, ATCC 13883); assay type: cell-based, Klebsiella pneumoniae; conditions: combination FdUrd+trimethoprim+uridine
S. aureus EN008 = assay: MIC, Gram-positive control; assay type: cell-based, Staphylococcus aureus; conditions: combination FdUrd+trimethoprim+uridine, Table 8
E. coli B EN0458 = assay: MIC; assay type: cell-based, Escherichia coli B; conditions: combination FdUrd+trimethoprim+uridine, Table 8
K. pneumoniae EN0245 = assay: MIC, colistinR; assay type: cell-based; conditions: combination FdUrd+trimethoprim+uridine, Table 19
P. aeruginosa EN0459 = assay: MIC; assay type: cell-based, Pseudomonas aeruginosa; conditions: combination FdUrd+trimethoprim+uridine, Table 8
P. aeruginosa EN0422 = assay: MIC; assay type: cell-based, Pseudomonas aeruginosa; conditions: combination FdUrd+trimethoprim+uridine, Table 8
P. aeruginosa EN0460 = assay: MIC; assay type: cell-based, Pseudomonas aeruginosa; conditions: combination FdUrd+trimethoprim+uridine, Table 8
K. pneumoniae EN0249 = assay: MIC, colistinR; assay type: cell-based; conditions: combination FdUrd+trimethoprim+uridine, Table 19
M. luteus EN0455 = assay: MIC; assay type: cell-based, Micrococcus luteus; conditions: combination FdUrd+trimethoprim+uridine, Table 8
A. baumannii EN016 = assay: MIC, WT; assay type: cell-based, Acinetobacter baumannii; conditions: combination FdUrd+trimethoprim+uridine, Table 8
S. sonnei APV00908 = assay: MIC and antibiogram; assay type: cell-based; conditions: combination FdUrd+trimethoprim+uridine, Table 22A
E. coli EN0235 = assay: microbe, parasite or virus in culture; assay type: cell-based; conditions: combination FdUrd+trimethoprim+uridine, Table 19
A. baumannii EN007 = assay: MIC, WT (EN007 = EN0007); assay type: cell-based, Acinetobacter baumannii; conditions: combination FdUrd+trimethoprim+uridine
S. flexneri APV00907 = assay: MIC and antibiogram; assay type: cell-based; conditions: combination FdUrd+trimethoprim+uridine, Table 22A
Excerpt: Inhibition of Heliobacter is important in view of increasing resistance and its association to gastric cancer.

E. aerogenes EN0461 = assay: MIC; assay type: cell-based, Enterobacter aerogenes; conditions: combination FdUrd+trimethoprim+uridine, Table 8
E. coli EN012 = assay: MIC, WT; assay type: cell-based, Escherichia coli; conditions: combination FdUrd+trimethoprim+uridine, Table 8
K. pneumoniae EN0144 = assay: MIC, MBL (VIM-1); assay type: cell-based; conditions: combination FdUrd+trimethoprim+uridine, Table 19
Citrobacter sp. EN0465 = assay: MIC; assay type: cell-based; conditions: combination FdUrd+trimethoprim+uridine, Table 8
[1] = system: A. pittii or A. nosocomialis EN0180; assay: MIC; assay type: cell-based, Acinetobacter pittii or nosocomialis; conditions: combination FdUrd+trimethoprim+uridine, Table 8
P. mirabilis EN0457 = assay: MIC; assay type: cell-based, Proteus mirabilis; conditions: combination FdUrd+trimethoprim+uridine, Table 8
E. coli EN002 = assay: MIC, DtoIC; assay type: cell-based, Escherichia coli; conditions: combination FdUrd+trimethoprim+uridine, Table 8
P. mirabilis ST19 EN0445 = assay: MIC; assay type: cell-based, Proteus mirabilis; conditions: combination FdUrd+trimethoprim+uridine, Table 8
E. coli EN003 = assay: microbe, parasite or virus in culture; assay type: cell-based, Escherichia coli; conditions: combination FdUrd+trimethoprim+uridine, Table 8
K. pneumoniae EN0463 = assay: MIC; assay type: cell-based, Klebsiella pneumoniae; conditions: combination FdUrd+trimethoprim+uridine, Table 8

## O=c1[nH]c(=O)n([C@H]2C[C@H](O)[C@@H](CO)O2)cc1F [FdUrd, Fluorodeoxyuridine]
P. aeruginosa EN004; Table 8
  MIC: >4 µg/mL
P. aeruginosa EN004; Table 19
  MIC: >4 µg/mL
S. epidermidis EN0456
  MIC: <0.008 µg/mL
E. coli EN001
  MIC: 0.25 µg/mL
K. pneumoniae EN0145
  MIC: >4 µg/mL
K. pneumoniae EN0244
  MIC: >4 µg/mL
E. coli EN0137
  MIC: >4 µg/mL
S. marescens EN0454
  MIC: >4 µg/mL
E. coli EN0134
  MIC: >4 µg/mL
K. pneumoniae EN006; Table 8
  MIC: 0.5 µg/mL
K. pneumoniae EN006; Table 19
  MIC: 0.5 µg/mL
S. aureus EN008
  MIC: <0.008 µg/mL
E. coli B EN0458
  MIC: 0.032 µg/mL
K. pneumoniae EN0245
  MIC: >4 µg/mL
P. aeruginosa EN0459
  MIC: >4 µg/mL
P. aeruginosa EN0422
  MIC: >4 µg/mL
P. aeruginosa EN0460
  MIC: >4 µg/mL
K. pneumoniae EN0249
  MIC: >4 µg/mL
M. luteus EN0455
  MIC: 2 µg/mL
A. baumannii EN016
  MIC: 4 µg/mL
S. sonnei APV00908
  MIC: >4 µg/mL
E. coli EN0235
  MIC: 0.06 µg/mL
A. baumannii EN007; Table 8
  MIC: >4 µg/mL
A. baumannii EN007; Table 19
  MIC: >4 µg/mL
S. flexneri APV00907
  MIC: >4 µg/mL
E. aerogenes EN0461
  MIC: 1 µg/mL
E. coli EN012
  MIC: 0.032 µg/mL
K. pneumoniae EN0144
  MIC: >4 µg/mL
Citrobacter sp. EN0465
  MIC: >4 µg/mL
[1]
  MIC: 4 µg/mL
P. mirabilis EN0457
  MIC: 1 µg/mL
E. coli EN002
  MIC: 0.032 µg/mL
P. mirabilis ST19 EN0445
  MIC: 0.5 µg/mL
E. coli EN003
  MIC: 0.016 µg/mL
K. pneumoniae EN0463
  MIC: 0.25 µg/mL
